Measured values taken from patent US9045525B2, “Amyloid β-protein-specific production-inhibiting polypeptide” (THE DOSHISHA, priority 2012, dated 2015).
Entries after “also recorded” stand apart in the source; their conditions may differ.

Experiments:
[1] = reported in NPL 1; cited from earlier work
[2] = tested on: Notch transiently expressed in CHO-K1 cells (7WD10 cells); assay: Cleavage of Notch protein (NICD) in 7WD10 cells; assay type: cell-based; conditions: for abundance of the NICD in the cell lysate: polypeptide 1, 5, 10, 20, and 50 μM
Procedure: (§1) An experiment was conducted wherein #1, #2, and #4 polypeptides were reacted with CHO-K1 cells (7WD10 cells) that stably expressed APP protein and transiently expressed Notch to confirm the production of Aβ protein and cleavage of Notch protein.

[3] = biological target: γ-secretase against βCTF (C99-FLAG) (Homo sapiens, UniProt P05067); assay: γ-Secretase activity inhibition experiment in vitro, C99-FLAG substrate; assay type: biochemical; conditions: for cleavage activity of γ-secretase against βCTF (Aβ40 from C99-FLAG): polypeptide 50 μM, 4 hours, 37° C., Western blotting
Procedure: (§2) A polypeptide having βCTF (C99-FLAG: SEQ ID NO: 16) and mouse-derived Notch protein having a FLAG peptide at the C-terminal side (modification of NCBI Accession No. Q01705.2; SEQ ID NO: 17; hereunder referred to as “Notch”) shown in FIG. 2(A) were each made into a solution having a final concentration of 50 nM.
(§3) To these solutions, 9-7 polypeptide, 6-5 polypeptide, #1 polypeptide, #2 polypeptide, #3 polypeptide, and #4 polypeptide were added in such a manner that the final concentrations were 50 μM, followed by reacting with 50 μL of CHAPSO-solubilized membrane fraction (γ-secretase-containing fraction) for 4 hours. The reaction temperature was 37° C. As a negative control experiment, DMSO was used in place of the six types of polypeptides described above.
(§4) Each sample after completion of the reaction was measured in the following manner. As shown in FIG. 2(A), a sample using C99-FLAG was subjected to Western blotting using a monoclonal antibody (82E-1) that specifically recognizes the N terminal of C99-FLAG, and the amount of Aβ40 protein produced by the cleavarage by γ-secretase was measured. In contrast, the reaction sample using Notch-FLAG was subjected to Western blotting using an anti-FLAG monoclonal antibody, and the amount of NICD produced to the separete by γ-secretase was also measured. FIG. 2(B) and FIG. 2(C) show the results.
(§5) An experiment was conducted in the same manner as in Experimental Example 1 described above, except that only #1 polypeptide was used and the amount of #1 polypeptide was selected so that the final concentrations were 0.5, 1, 5, 10, 20, and 50 μM.
(§6) An experiment was conducted in the same manner as in Experimental Example 1 described above, except that S4 polypeptide was used as the polypeptide, and each addition amount was set in such a manner that the final concentrations were 1, 5, 10, 20, and 50 μM. In this Experimental Example, #4 polypeptide was added in such a manner that the final result was 50 μM.

[4] = tested on: CHO-K1 cells (7WD10 cells) that stably expressed APP protein; assay: Aβ protein production inhibition experiment in 7WD10 cells (sAPPβ, βCTF, Aβ); assay type: cell-based; conditions: for Aβ protein in the cell culture medium (released Aβ) / Aβ protein in the cell lysate (intracellular Aβ) / sAPP in the cell lysate / βCTF (C99) in the cell lysate: polypeptide 1, 5, 10, 20, and 50 μM
Procedure: as §1

[5] = tested on: sialyltransferase (st6gal), substrate of β-secretase, in 7WD10 cells; assay: Cleavage of sialyltransferase (st6gal) in 7WD10 cells; assay type: cell-based; conditions: polypeptide 25 μM and 50 μM
Procedure: An experiment was conducted in the same manner as Experimental Example 6 except that only S4 polypeptide was used as the polypeptide; the S4 polypeptide was added to have the final concentrations of 25 μM and 50 μM; the cell used in this experiment was CHO-K1 cell (7WD10 cell) that expressed APP protein and transiently expressed Notch and sialyltransferase (st6gal), which is the substrate of β-secretase; and confirmation of cleavage by sialyltransferase was conducted in addition to the confirmation of the production of Aβ protein and cleavage of Notch protein.

[6] = biological target: γ-secretase against Notch (Mus musculus, UniProt Q01705, V1997L); assay: γ-Secretase activity inhibition experiment in vitro, Notch-FLAG substrate; assay type: biochemical
Procedure: as §2, §3, §4, §5, §6

[7] = biological target: β-secretase against APP (APP-EQ-FLAG) (Homo sapiens, UniProt P05067); assay: β-Secretase activity inhibition experiment in vitro, APP-EQ-FLAG substrate; assay type: biochemical; conditions: for cleavage activity of β-secretase against APP (Aβ33-FLAG): polypeptide 50 μM, 4 hours, 37° C., Western blotting
Procedure: A solution containing the polypeptide having APP (APP-EQ-FLAG: SEQ ID NO: 18) as shown in FIG. 5(A) was prepared in such a manner that its final concentration was 50 nM.
To this solution, 9-7 polypeptide, 6-5 polypeptide, #1 polypeptide, #2 polypeptide, #3 polypeptide, #4 polypeptide, #5 polypeptide, #6 polypeptide, #7 polypeptide, #8 polypeptide, #9 polypeptide, and #10 polypeptide were added in such a manner that each solution had the final concentration of 50 μM, followed by reacting with 50 μL β-secretase (0.02 U/μL) for 4 hours. The reaction temperature was 37° C. As a negative control experiment, DMSO was used in place of the 12 types of polypeptides mentioned above.
After completion of the reaction, each sample was subjected to Western blotting using a monoclonal antibody (82E-1) that specifically recognizes the N terminal of APP-EQ-FLAG as shown in FIG. 5(A). Thereafter, the amount of Aβ33-FLAG protein separated by β-secretase was measured.
An experiment was conducted in the same manner as Experimental Example 4 described above except that S4 and #4 polypeptides were used as the polypeptide and the amounts of these polypeptides added were adjusted so that the final concentrations were 1, 5, 10, 20, 50, and 100 μM.

[8] = tested on: Neuro 2A cells (N2A); assay: Mouse Aβ production inhibition experiment, Neuro 2A cells; assay type: cell-based; conditions: polypeptide 20 μM, Neuro2A cells expressing mouse-type APP, anti-mouse Aβ antibody Western blotting
Procedure: (§7) #1, #2, and #4 polypeptides were added to the culture solutions of CHO-K1 cells and Neuro 2A cells (N2A) in such a manner that the final concentration was 20 μM. As a control, L685458 (i.e., a γ-secretase inhibitor) and DMSO were added thereto in such a manner that the final concentration was 20 μM.
(§8) Thereafter, Aβ contained in the cell culture medium was identified by using a Western-blotting method with an antibody (anti-mouse Aβ antibody) that recognizes Aβ. […] In the figure, L indicates L685458, which is a γ-secretase inhibitor (final concentration of 1 μM).

[9] = tested on: CHO-K1 cells; assay: Mouse Aβ production inhibition experiment, CHO-K1 cells; assay type: cell-based; conditions: polypeptide 20 μM, CHO-K1 cells expressing mouse-type APP, anti-mouse Aβ antibody Western blotting
Procedure: as §7, §8

[10] = polypeptide 25 μM and 50 μM, cells also expressing st6gal
[11] = polypeptide 1, 5, 10, 20, and 50 μM
[12] = polypeptide 0.5, 1, 5, 10, 20, and 50 μM

Sequence of γ-secretase against βCTF (C99-FLAG) (P05067 with tags, fused parts or gaps): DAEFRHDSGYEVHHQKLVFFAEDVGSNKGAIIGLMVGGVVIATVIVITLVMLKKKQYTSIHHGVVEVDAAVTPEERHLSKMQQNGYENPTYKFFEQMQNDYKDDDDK
Sequence of γ-secretase against Notch (Q01705 with tags, fused parts or gaps V1997L): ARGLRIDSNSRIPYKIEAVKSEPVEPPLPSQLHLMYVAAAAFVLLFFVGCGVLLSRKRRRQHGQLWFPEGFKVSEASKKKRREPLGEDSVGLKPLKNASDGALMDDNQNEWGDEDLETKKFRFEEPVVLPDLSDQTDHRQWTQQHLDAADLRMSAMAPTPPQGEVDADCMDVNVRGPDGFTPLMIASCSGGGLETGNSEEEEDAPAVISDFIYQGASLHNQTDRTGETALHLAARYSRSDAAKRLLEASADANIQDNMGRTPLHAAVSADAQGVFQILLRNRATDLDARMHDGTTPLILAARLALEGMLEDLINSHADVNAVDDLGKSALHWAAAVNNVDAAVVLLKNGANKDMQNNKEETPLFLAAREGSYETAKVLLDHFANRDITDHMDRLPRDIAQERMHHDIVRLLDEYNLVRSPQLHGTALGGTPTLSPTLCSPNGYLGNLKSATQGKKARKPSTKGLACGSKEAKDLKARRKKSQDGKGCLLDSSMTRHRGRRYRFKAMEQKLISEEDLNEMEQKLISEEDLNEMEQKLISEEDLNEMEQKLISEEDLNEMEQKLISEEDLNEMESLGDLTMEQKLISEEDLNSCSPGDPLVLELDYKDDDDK
Sequence of β-secretase against APP (APP-EQ-FLAG) (P05067 with tags, fused parts or gaps): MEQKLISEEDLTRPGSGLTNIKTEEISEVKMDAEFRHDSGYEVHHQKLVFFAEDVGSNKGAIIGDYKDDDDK

For C[C@H](NC(=O)[C@@H](O)c1cc(F)cc(F)c1)C(=O)N[C@@H]1C(=O)N(C)c2ccccc2-c2ccccc21 [LY-411,575], the “effect on the thymus” value [1] is listed as “induces atrophy of the thymus” and the “number of mature B cells in the spleen” value [1] is listed as “reduces the number of mature B cells in the spleen”.
In the case of FGBTWDYWVYR [S4], the “amount of NICD in the cell lysate” value [2, 10] was “did not decrease”, the “cleavage activity of γ-secretase against βCTF” value [3, 11] was “inhibits more intensely in a concentration-dependent manner the cleavage activity of γ-secretase against βCTF” and the “Aβ protein (intracellular Aβ) in the cell lysate” value [4, 10] was “decreased”. For the same compound, the “amount of Aβ protein (released Aβ) in the cell culture medium” value [4, 10] was “reduced”, the “sAPPβ production amount in the cell culture medium” value [4, 10] was “reduced” and the “st6gal production amount in the cell culture medium” value [5] was “not decreased”. The “cleavage activity of γ-secretase against Notch (NICD)” value (“cleavage activity … (NICD)” for short) [6, 11] was “not inhibited” and the “cleavage activity of β-secretase against APP” value ([7]; polypeptide 1, 5, 10, 20, 50, and 100 μM) was “inhibited the cleavage activity of β-secretase against APP, although inferior to #4 polypeptide; also recorded: inhibited the cleavage activity of β-secretase against APP in a concentration-dependent manner”.
With “MDTVICDCYCDNYVCFCYSCSHV (Ac-MDTVICDCYCDNYVCFCYSCSHV-NH2; cysteine pairing not given here) [#2]” the “abundance of the NICD in the cell lysate” value [2] was “not decreased”, the “production of Aβ in the culture medium” value [8] was “the production of Aβ in the culture medium was reduced” and the “cleavage activity of γ-secretase against βCTF (Aβ40 from C99-FLAG)” value [3] was “inhibited more cleavage activity of γ-secretase against βCTF”. The “Aβ protein in the cell culture medium (released Aβ)” value [4] was “decreased depending on the concentration”, the “Aβ protein in the cell lysate (intracellular Aβ)” value [4] was “no longer present in a manner dependent on the final concentration” and the “sAPP in the cell lysate” value [4] was “no longer present in a manner dependent on the final concentration”. For the same compound, the “βCTF (C99) in the cell lysate” value [4] was “no longer present in a manner dependent on the final concentration”, the “production of Aβ in the culture medium” value [9] was “the production of Aβ in the culture medium was reduced” and the “cleavage activity of β-secretase against APP (Aβ33-FLAG)” value [7] was “inhibit the cleavage activity of β-secretase against APP more intensely”.
In the case of “MSIRVCDCYCHGDLCFCYSCINS (Ac-MSIRVCDCYCHGDLCFCYSCINS-NH2; cysteine pairing not given here) [#1]”, the “abundance of the NICD in the cell lysate” value [2] was “not decreased”, the “production of Aβ in the culture medium” value [8] was “the production of Aβ in the culture medium was reduced” and the “cleavage activity of γ-secretase against βCTF (Aβ40 from C99-FLAG)” value [3] was “inhibited more cleavage activity of γ-secretase against βCTF; also recorded: inhibited the cleavage activity of γ-secretase against Aβ protein”. For the same compound, the “cleavage activity of γ-secretase against βCTF” value [3, 12] was “more intensively inhibits the cleavage activity of γ-secretase against βCTF in a concentration-dependent manner; also recorded: inhibited the cleavage activity of γ-secretase against βCTF in a concentration-dependent manner”, the “Aβ protein in the cell culture medium (released Aβ)” value [4] was “decreased depending on the concentration” and the “Aβ protein in the cell lysate (intracellular Aβ)” value [4] was “no longer present in a manner dependent on the final concentration”. For the same compound, the “sAPP in the cell lysate” value [4] was “no longer present in a manner dependent on the final concentration”, the “βCTF (C99) in the cell lysate” value [4] was “no longer present in a manner dependent on the final concentration” and the “production of Aβ in the culture medium” value [9] was “the production of Aβ in the culture medium was reduced”. For the same compound, the “cleavage activity … (NICD)” value ([6]; polypeptide 50 μM, 4 hours, 37° C., Western blotting) was “did not inhibit the cleavage activity against Notch”, the “cleavage activity … (NICD)” value [6, 12] was “did not inhibit the cleavage activity of γ-secretase against Notch” and the “cleavage activity of β-secretase against APP (Aβ33-FLAG)” value [7] was “inhibit the cleavage activity of β-secretase against APP more intensely”.
